From US20220383986A1, “Complex System for Contextual Spectrum Mask Generation Based on Quantitative Imaging” (The Board of Trustees of the University of Illinois, priority 2021, published 2022)

Experiments:
[1] = system: CHO cells; settings: 1 μM staurosporine added to culture medium; general description of the reagent; cited from earlier work
[2] = system: CHO cells; assay: time-lapse SLIM recording of CHO cells with and without staurosporine; assay type: cell-based, Chinese hamster; settings: 1 μM staurosporine in medium, measured for 10 hours, 37° C. and 5% CO2
Description: CHO cells were plated on a glass bottom 6-well plate for optimal confluency. In addition to NucBlue/NucGreen staining, 1 μM of staurosporine (apoptotic inducing reagent) solution was added to the culture medium. This potent reagent permeates cell membrane and disrupts protein kinase, cAMP, and lead to apoptosis in 4-6 hours. The cells were then measured by SLIM and epi-fluorescence microscopy. The cells were maintained in regular incubation condition (37° C. and 5% concentration of CO2) throughout the experiment. In addition, it is verified that the cells were not affected by necrosis and lytic cell death.
PICS on CHO cells and Evaluate the effect of lytic cell death: Before performing experiments on CHO cells, a preliminary study was conducted, as follows. Live cell cultures were prepared and split into the two groups. 1 μM of staurosporine was added into the medium of the experimental group, whereas the others were kept intact as control. Both control and experimental cells were measured with SLIM for 10 hours under regular incubation condition (37° C. and 5% concentration of CO2).

For CN[C@@H]1C[C@H]2O[C@@](C)([C@@H]1OC)n1c3ccccc3c3c4c(c5c6ccccc6n2c5c31)C(=O)NC4 [staurosporine], the time to apoptosis [1] is given as 4 to 6 h and the “cell characteristics in SLIM (QPI) images versus untreated control” value [2] is given as “cell volume decreased, and membrane ruptured or became detached”.
